# How the values were obtained:
# Format in all cases: cell-based, human
# OE33 cells [1] = test: Clonogenic survival assay with IR, OE33; conditions: Ru1 2 μM or Cis 500 nM for 24 h before IR
# Protocol: (§1) Clonogenic survival assay. OE21, OE33 or FLO1 cells were treated with 2 µM Ru1 for 24 h before irradiation with 0-8 Gy using a 137Cs γ-irradiator (IBL637, CIS Bio Int.; dose rate = 0.809 Gy min−1). 1 h after irradiation, cells were detached using Trypsin and re-seeded in 6 well plates at a density of 300 – 20,000 cells/well in triplicate in an incrementally greater number of cells with increasing IR dose to ensure adequate colony formation. Cells were incubated for 7–14 days after re-seeding to allow colony formation before being fixed with 10% methanol, 10% acetic acid and stained with 0.4% methylene blue. OE33 cells required an additional formaldehyde fixation (4% in PBS, 5 mins) step before the addition of methylene blue solution or colony detachment occurred. Colonies containing 50 cells or greater were counted using a Gelcount instrument and accompanying software (Oxford Optronix). Plating efficiencies were determined for each treatment condition and normalised to an untreated control to provide the surviving fraction (S. F.). S.F. versus radiation dose curves were plotted in GraphPad Prism and fit using a second order polynomial function (R2 values > 0.99). Dose modifying factors (DMF) at a SF=0.1 were calculated using the equation: Dose modifying factor (DMF) = IR dose to give S.F. 0.1/IR dose plus compound to give S.F.0.1. […]
# FLO-1 cells [2] = test: Clonogenic survival assay with IR, FLO-1; conditions: Ru1 2 μM or Cis 300 nM for 24 h before IR
# Protocol: as §1
# OE33 cells [3] = test: Micronuclei formation, OE33; conditions: OE33, 45 μM Ru1, 24 h incubation
# Protocol: propidium iodide (PI) is standard to quantify DNA content using flow cytometry, bleed-through of the MLCT emission of […]
# To remove these artefacts, a higher concentration of Ru1 (100 µM, 10 mins) was additionally applied post-incubation and fixation to treated and control samples, acting as a substitute DNA dye instead of PI. After staining, cells were centrifuged (1000 rpm, 5 mins) and re-suspended in PBS.
# Samples were analysed using a Biosciences LSRII Flow Cytometer using the FL2 channel to collect (recognisable) cell-cycle […]
# profiles. […] A minimum of
# 10,000 cells were counted for each sample and data were processed using FloJo software.
# Microscopy and immunofluorescence. […]
# emission was collected from 500-530 nm to prevent spectral overlap with Ru1 emission. γH2AX foci were counted using […]
# The absorbance at 540 nm was quantified by plate reader (reference wavelength 650 nm). The metabolic activity of the cell population was determined as a percentage of a negative (solvent) control. […]
# Cell cultures were treated as stated, media containing detached/dead cells were removed and retained, and adherent collected by Trypsin and centrifugation. […] Trypan Blue negative and Trypan Blue positive cells were counted by haemocytometer. A minimum of 200 cells were counted for each sample. […]
# FLO-1 cells [4] = test: Micronuclei formation, FLO-1; conditions: FLO-1, 44 μM Ru1, 24 h incubation
# Protocol: Microscopy and immunofluorescence. Cells were seeded on ibidi 35 mm µ-dishes (Thistle Scientific), allowed to adhere for 24 h and treated as stated in the main text. Cell media was removed, cells washed with PBS and fixed with formaldehyde (4%, 10 mins). Cells were permeablised with Triton (0.5% in PBS, 5 mins) and washed with PBS. Samples were blocked with BSA (3% in PBS-T) for 1 h before incubation with primary antibody (either anti-α-tubulin or anti-γ H2AX, 1/500 dilution) in BSA (3% in PBS-T) for 1 h. Samples were washed 3x in PBS-T and incubated with Alexa Fluor-conjugated secondary antibodies (3% in PBS-T, 1 h, 1/250 dilution). After further washing (3x5 min PBS-T) samples were co-stained with DAPI (5 ng/ml, 2 min), fresh PBS added and visualised by confocal microscopy. Samples were visualised using a Zeiss LSM 780 or LSM 710 inverted confocal microscope and EC Plan-Neofluar 40x/1.30 Oil objectives. […]
# For the determination of mutation induction, from the untreated and each treated condition, 2x10^5 cells were plated in 10 x 100 mm dishes in selective media (regular media
substance,measurement,setting,value
[Ru(phen)2(tpphz)]^2+ [Ru1],S.F.,"OE33 cells [1]; OE33, IR 0 Gy",0.956
same,S.F.,"OE33 cells [1]; OE33, IR 2 Gy",0.447
same,S.F.,"OE33 cells [1]; OE33, IR 4 Gy",0.083
same,S.F.,"OE33 cells [1]; OE33, IR 6 Gy",0.014
same,S.F.,"OE33 cells [1]; OE33, IR 8 Gy",0.003
same,S.F.,"FLO-1 cells [2]; FLO-1, IR 0 Gy",0.873
same,S.F.,"FLO-1 cells [2]; FLO-1, IR 2 Gy",0.188
same,S.F.,"FLO-1 cells [2]; FLO-1, IR 4 Gy",0.042
same,S.F.,"FLO-1 cells [2]; FLO-1, IR 6 Gy",0.005
same,"Cells with micronuclei, Percentage",OE33 cells [3],3.4%
same,"Cells with micronuclei, Percentage",FLO-1 cells [4],3.3%
